We go through 1 molecule from patent US20200087248A1, “Fluoroallylamine Derivative And Use Thereof” (SICHUAN KELUN-BIOTECH BIOPHARMACEUTICAL CO., LTD., priority 2017, published 2020).

Where a name gives a salt, the structure may show the parent alone.

Series [1] is described as follows: Stability in liver microsomes, mouse. The class given is in vitro ADME. As to the method:
(§1) Stability of Liver Microsomes
(§2) Formulation of a compound reservation solution: the test compound, diclofenac acid, testosterone and propafenone were weighted in appropriate amounts, and calibrated by adding about 1 mL of DMSO to provide a 10 mM reservation solution, then stored in a 4° C. refrigerator;
(§3) Formulation of a compound working solution: 10 μL of the reservation solution were added to 990 μL acetonitrile-water (1:1) to provide a middle solution having a concentration of 100 μM, and 120 μL of the middle solution is further diluted with 2880 μL PBS to provide a 4 μM working solution; […]
(§4) After being incubated for a certain period of time, an equivalent volume of cooled acetonitrile (4° C.) was added to terminate the reaction, and LC-MS/MS was used to determine the concentrations of the compound after being incubated in various liver microsomes for different time periods. With the incubation time as the horizontal ordinate and the natural logarithm of the percentages of the remained compound at each time point as the longitudinal coordinate, a diagram was plotted, wherein the slope was the velocity constant (Ke), and the half-life (T1/2) and clearance rate (CLliver) of the compound were calculated according to the following equation to evaluate the staiblity of the compound in the liver microsomes. […]

Series [2] can be described thus: Stability in liver microsomes, rat. The class given is in vitro ADME. The protocol:
as §1, §2, §3, §4
A general note: Liver microsomes are vesicles of endoplasmic reticulum, rich in cytochrome P450 enzymes.

For a further series, the system named is Caco-2 cells. The series is described as follows: Caco-2 permeation experiment. Type of series: in vitro ADME. To be noted: 2 μM. As to the method: (§5) Caco-2 Permeation Experiment
(§6) Culture medium: 10%FBS+1% unnecessary amino acid+90%DMEM (high glucose)
(§7) Permeation solution (pH 7.4): HBSS (Ca^+, Mg^+)+10 mM Hepes
(§8) Compound reservation solution: an amount of the test compound was weighted and added with a certain amount of DMSO to formulate a 10 mM reservation solution.
(§9) Cells were inoculated to Transwell cells in a quantity of 6*10^4/cm^2, and at the A side (top side), were added with 200 μL of the culture medium, and at the B side (base side), were added with 1000 μL of the culture medium. After the inoculation, the solution was replaced once every 2 days, and the culture was conducted for 21 to 28 day.
(§10) After 21 to 28 days since the inoculation of Caco-2 cells, the transmembrane resistance was measured.
(§11) Permeation experiment: after the transepithelial electrical resistance was measured, the buffer solution at the two sides was removed by suction, then added thereto the solution according to the following system.
(§12) According to the experimental conditions as shown in the following Table 15, the reaction solution in each experimental group was formulated: […]
(§13) Sample treatment: after 2-hours incubation, 50 μL of the permeation solution were sucked up from each side of side A and side B, and equivalent volume of cold acetonitrile was added to terminate the reaction, and the concentrations of the compound at the A and B sides were measured by LC-MS/MS. The apparent permeation (Papp) and the Efflux Ratio were calculated according to the following equations:
(§14) Efflux Ratio=Papp(BA)/Papp (AB)
(§15) wherein, dCr/dt is the integration of the concentration of the compound at the base side realted to time, Vr is the reaction volume at the base side, A is the area of a single layer of cells, being 0.33 cm^2, and C0 is the concentration of the compound at the top side.
Background: Passage across Caco-2 layers is used to estimate intestinal permeability.

The nature of series [3]: Caco-2 permeation experiment. To be noted: human. Type of series: in vitro ADME. As to the method: as §5, §6, §7, §8, §9, §10, §11, §12, §13, §14, §15
A short description of series [4]: Stability in liver microsomes, monkey. Type of series: in vitro ADME. As to the method: as §1, §2, §3, §4
The nature of another series: Rat PK experiment. To be noted: male; for AUC(0-inf) / Cmax / half-life: rat blood plasma. Type of series: in vivo, Male rats. As to the method:
Male rats were intravenously (iv) and intragastrically (po) administered the test compounds respectively, and LC-MS/MS was used to measure the blood plasma concentration of the compound in the bodies of the rat. The main pharmacokinetic parameters were calculated by utilizing WinNonlin 6.3 software.

Series [5] can be described thus: Stability in liver microsomes, human. The class given is in vitro ADME. The protocol: as §1, §2, §3, §4
A short description of series [6]: Stability in liver microsomes, dog. The class given is in vitro ADME. The protocol:
as §1, §2, §3, §4

Broadly, the efflux ratio is a quotient of directional permeabilities that is used to spot active efflux. What is called bioavailability is dose-corrected exposure relative to a reference, in per cent. Usually AUC(0-inf) stands for the area under the concentration-time curve extrapolated to infinity. A word on the Cmax: it is the peak of the concentration-time curve. Regarding `CC1(C)Cc2cc(OC/C(=C/F)CN)ccc2C(=O)N1` [HC38-E, (E)-6-((2-(aminomethyl)-3-fluoroallyl)oxy)-3,3-dimethyl-3,4-dihydroisoquinolin-1(2H)-one hydrochloride], the “T1/2 in liver microsomes” value in series [1] (Mouse), in series [2] (Rat), in series [4] (Monkey), in series [5] and in series [6] (Dog) was “long half-life” each time. For the same molecule, the half-life is 13.8 h in series [1] (mouse, liver microsomes, read-out: T1/2 in liver microsomes); 14.2 h in series [2] (rat, liver microsomes, read-out: T1/2 in liver microsomes); 20.8 h in series [4] (monkey, liver microsomes, read-out: T1/2 in liver microsomes); 1.43 ± 0.15 h in “Rat PK experiment” (iv 3 mg/kg); 1.37 ± 0.01 h in the series “Rat PK experiment” (po 3 mg/kg); 44.6 h in series [5] (liver microsomes, read-out: T1/2 in liver microsomes). The half-life in series [6] (dog, liver microsomes, read-out: T1/2 in liver microsomes) worked out at 118 h. In addition, the “Average apparent permeability A to B” value with Caco-2 cells (120 min, pH 7.4) was “high permeability”. In the series with Caco-2 cells (Papp(BA)/Papp(AB)), the Efflux ratio entry is “low possibility of active efflux”. Also, the Papp A→B at 120 min, 2 μM in series [3] (Caco-2, 120 min, pH 7.4, read-out: Average apparent permeability A to B) is 2.6 ×10⁻⁶ cm/s. Further, the Papp B→A at 120 min, 2 μM in series [3] (Caco-2, 120 min, pH 7.4, read-out: Average apparent permeability B to A) is 3.26 ×10⁻⁶ cm/s. Besides, in series [3] (Caco-2, pH 7.4, Papp(BA)/Papp(AB)), the efflux ratio at 2 h, 2 μM amounted to 1.26. Also, the bioavailability in the series “Rat PK experiment” (plasma, rat, po 3 mg/kg) stood at 89.9%. Also, the AUC(0-inf) in the series “Rat PK experiment” (iv 3 mg/kg) amounted to 1160 ± 120 ng·h/mL; in the series “Rat PK experiment” (po 3 mg/kg) it was 1040 ± 129 ng·h/mL. Besides, the Cmax in the series “Rat PK experiment” (iv 3 mg/kg) turned out to be 1040 ± 181 ng/mL; in the series “Rat PK experiment” (po 3 mg/kg) it was 343 ± 24 ng/mL.
